Several values for one entry are separate records, joined by “and”; a condition that tells them apart may be missing. Identical values can stand only once. Entries after “also recorded” stand apart in the source; their conditions may differ.
Legend:
[1] = system: CCR7−CD163−CD206+ BALF macrophages; assay: Flow cytometry of BALF macrophages; assay type: in vivo, Macaca mulatta; conditions: Groups 2 and 3 at 6 mpi compared to both PAH+ and PAH− SIV/Untreated controls
Excerpt: (§1) Among cytokine signatures associated with the SIV-PAH, MIP-1α, TNF-α, and TGF-β have been previously associated with macrophage populations that promote fibrosis. At 6 mpi, SIV-PAH^+ animals had higher numbers of peripheral blood CD14^dimCD16^+ non-classical monocytes (FIG. 14A, p=0.06) and CCR7^−CD163^−CD206^+ BALF macrophages (FIG. 14C, p=0.04) compared to SIV-PAH^− controls. Moreover, increased numbers of CD14^dimCD16^+ non-classical monocytes (FIG. 14B, left panel, p=0.04) and CD14^+ CCR7^−CD163^−CD206^+ macrophages (FIG. 14D, left panel, p=0.03) correlate with increased pulmonary pressures in SIV/Uninfected controls at 6 mpi. Given the pleiotropic effects of statin upon monocyte and macrophage skewing and cytokine secretion, it was hypothesized that statins may decrease these populations which are associated with SIV-PAH.
(§2) Animals. […] Study Design and Statin treatment. […] Hemodynamic measurements through right hearth catheterization. […] Flow Cytometry. […] Cytokine measurement in plasma and BALF. […] Whole slide images were acquired by Servicebio (Woburn, Mass.). […]

[2] = system: TGF-β; assay: Cytokine measurement in BALF (Cytokine 29-Plex Monkey Panel); assay type: in vivo, Macaca mulatta; conditions: both statin-treated cohorts compared to PAH+ and PAH− SIV/Untreated controls
Excerpt: To determine if statin treatment could modify these inflammatory mediators associated with SIV-PAH, cytokine profiles in the statin-treated cohorts were compared.
Animals. 28 adult Chinese rhesus macaques (Macaca mulatta) aged 6-10 years old were obtained from national primate centers or vendors and housed in accordance with the NIH Guide for the Care and Use of Laboratory Animals in a BSL2^+ primate facility at the University of Georgia (National Research Council Committee for the Update of the Guide for the Care and Use of Laboratory Animals, Guide for the Care and Use of Laboratory Animals (8th ed.) (National Academies Press National Academy of Sciences., 2011). Prior to admission to the study, all animals were screened and found negative for simian retroviruses and preexisting cardiovascular disease. Study Design and Statin treatment. All cohorts were infected with SIVΔB670 (1:100 in PBS), tissue culture infectious dose of 50% (TCID50)=2.6×10^5), intravenously or mucosally as previously described (Tarantelli et al. (2018); Schweitzer, F. et al. (2019)). […] All procedures were approved by the University of Georgia Institutional Animal Care and Use Committee. […] Quantitative analysis of cytokines and chemokines in the plasma and BALF was performed using the Cytokine 29-Plex Monkey Panel (Invitrogen, Carlsbad, Calif.) according to the manufacturer's instructions. […]

[3] = system: SIVΔB670; assay: Plasma viral load throughout SIV infection; assay type: in vivo, simian immunodeficiency virus (SIV)
Excerpt: Therefore, peripheral blood CD4^+ T cell levels and plasma viral load throughout SIV infection were examined.
Animals. 28 adult Chinese rhesus macaques (Macaca mulatta) aged 6-10 years old were obtained from national primate centers or vendors and housed in accordance with the NIH Guide for the Care and Use of Laboratory Animals in a BSL2^+ primate facility at the University of Georgia (National Research Council Committee for the Update of the Guide for the Care and Use of Laboratory Animals, Guide for the Care and Use of Laboratory Animals (8th ed.) (National Academies Press National Academy of Sciences., 2011). Prior to admission to the study, all animals were screened and found negative for simian retroviruses and preexisting cardiovascular disease. Study Design and Statin treatment. All cohorts were infected with SIVΔB670 (1:100 in PBS), tissue culture infectious dose of 50% (TCID50)=2.6×10^5), intravenously or mucosally as previously described (Tarantelli et al. (2018); Schweitzer, F. et al. (2019)). […] All procedures were approved by the University of Georgia Institutional Animal Care and Use Committee. Hemodynamic measurements through right hearth catheterization. Right heart catheterization was performed and analyzed using a Swan-Ganz balloon wedge pressure catheter advanced through the right atrium, right ventricle, and pulmonary artery as previously described (Tarantelli et al). Flow Cytometry. Peripheral blood and bronchoalveolar lavage fluid (BALF) were collected at baseline (BL), 6 months post infection (mpi) and at study termination (10-12 mpi), and processed for flow cytometry as previously described (Board, K. F. et al. Experimental Pneumocystis carinii pneumonia in simian immunodeficiency virus-infected rhesus macaques. The Journal of infectious diseases 187, 576-588 (2003) and Kling, H. M. et al. Relationship of Pneumocystis jiroveci humoral immunity to prevention of colonization and chronic obstructive pulmonary disease in a primate model of HIV infection. Infection and immunity 78, 4320-4330 (2010)). CD14^dimCD16^+ non-classical monocytes and CCR7^−CD163^−CD206^+ BALF macrophages were identified by flow cytometry and calculated as previously described by Schweitzer, F. et al., supra). All analyses were performed using FlowJo Analysis software (Tree Star, Inc., Ashland, Oreg.). Cytokine measurement in plasma and BALF. Quantitative analysis of cytokines and chemokines in the plasma and BALF was performed using the Cytokine 29-Plex Monkey Panel (Invitrogen, Carlsbad, Calif.) according to the manufacturer's instructions. BALF analytes were normalized on the assumption that plasma and BALF have equal urea concentrations as previously described, using Quanti Chrom Urea Assay Kit (BioAssay Systems, Destin, Fla.) (Schweitzer, F. et al., supra). Histopathology and quantification of right ventricular and lung periarteriolar collagen deposition. 5 μm thick FFPE sections of the right heart and lung were cut and stained with Masson's trichrome and 0.1% Pico Sirius Red counterstained with Weigert's hematoxylin, to reveal fibrillar collagen, respectively by the UGA CVM Histopoathology Laboratory (Athens, Ga.). […] To quantify right ventricular collagen deposition in Masson's trichrome stained sections, 170 mm^2 regions were analyzed using Image J software (imagej.nih.gov/ij), with the threshold color plugin set to RGB; bright blue collagen was selected, converted to a binary image, and measured to quantify the collagen area. […]

[4] = system: small pulmonary arteries collagen deposition; assay: Lung periarteriolar collagen deposition (Picro-Sirius Red); assay type: in vivo, Macaca mulatta
[5] = system: right ventricle collagen deposition; assay: Right ventricular collagen deposition (Masson's trichrome); assay type: in vivo, Macaca mulatta
Excerpt: Moreover, increases in collagen deposition within the right ventricle (FIG. 15B, P=0.004; FIG. 15C) and small pulmonary arteries (FIG. 15D, P=0.0005) correlated with increased pulmonary pressures in SIV/Uninfected controls. Given the substantial dampening of pro-fibrotic immune phenotypes that occurs with statin treatment, right ventricular and lung periarteriolar collagen deposition were examined following statin treatment.
as §2

[6] = system: SIV-infected rhesus macaques; assay: SIV-PAH model, hemodynamics by serial right heart catheterization; assay type: in vivo, Macaca mulatta; conditions: for Incidence PAH ≥ 25 mm Hg 6-12 mpi: number of animals of n = 14; for Prevalence of PAH (% PAH+): n = 14, untreated 52.2
Method: To determine the effect of statin treatment on PAH, SIV-infected rhesus macaques were studied. More specifically, a non-human primate (NHP) model of HIV-associated PAH that closely mimics HIV-PAH using simian immunodeficiency virus (SIV)-infected rhesus macaques (Macaca mulatta) was used. […] Moreover, the histologic and hemodynamic manifestations of SIV-PAH closely approximate those of human PAH.
Hemodynamics were measured by serial right heart catheterizations at baseline (BL), 6 months post-infection (6 mpi), and at the end of study (10-12 mpi) (FIG. 11C, 11D). In contrast to untreated controls (Untreated/SIV Group 1), 14.3% (Table 5, 2 of 14, P=0.03) of statin-treated animals (SIV/Statin Group 2) developed elevated mean pulmonary arterial pressure (mPAP) (monkey 3316 at 25.4 mm Hg and monkey 2416 at 46.3 mm Hg) at 6 mpi (FIG. 1). Of these animals, one maintained slightly elevated mPAP until the end of the study (monkey 3316, terminal mPAP=25.7). At study termination, mPAP of monkey 2416 decreased to 21.2 mm Hg.
It was further tested whether statin treatment initiated following SIV infection could modify PAH incidence or progression (FIG. 11A, SIV/Statin Group 3; Table 6). In this cohort, 1 of 14 monkeys (Table 2, 7.1%, P=0.0097) developed PAH (animal 2916; 6 mpi mPAP=45.5) at 6 mpi.
as §2

[7] = system: CD14dimCD16+ non-classical monocytes; assay: Flow cytometry of peripheral blood monocytes; assay type: in vivo, Macaca mulatta; conditions: both statin cohorts at 6 mpi compared to SIV-PAH+ controls
Excerpt: as §1, §2

[8] = SIV/Statin Group 2, individual animals
[9] = SIV/Statin Group 3, individual animals
[10] = statin-treated cohorts compared with SIV-PAH− controls

Question: How did the “number of CCR7−CD163−CD206+ BALF macrophages” value [1] turn out when `CC(C)c1c(C(=O)Nc2ccccc2)c(-c2ccccc2)c(-c2ccc(F)cc2)n1CC[C@@H](O)C[C@@H](O)CC(=O)O` [atorvastatin] was run?
Answer: The value was “significantly reduced”.

Question: And the “levels of BALF TGF-β at 6 mpi” value [2]?
Answer: Its value is “significantly lower”.

Question: What about the “Peak viral load (no. of RNA copies/mL)” value [3, 8] of the same molecule?
Answer: The value was 8.1 × 10^6 RNA copies/mL and 7.9 × 10^6 RNA copies/mL and 1.6 × 10^7 RNA copies/mL and 1.3 × 10^7 RNA copies/mL and 7.3 × 10^6 RNA copies/mL and 1.7 × 10^7 RNA copies/mL and 1.8 × 10^7 RNA copies/mL and 4.9 × 10^7 RNA copies/mL and 1.1 × 10^7 RNA copies/mL and 9.3 × 10^6 RNA copies/mL and 3.7 × 10^7 RNA copies/mL and 5.0 × 10^7 RNA copies/mL and 1.0 × 10^7 RNA copies/mL and 5.0 × 10^6 RNA copies/mL.

Question: What about the “Viral set point (no. of RNA copies/mL)” value [3, 8] of the same molecule?
Answer: The value was 3.0 × 10^4 RNA copies/mL and 6.1 × 10^3 RNA copies/mL and 1.8 × 10^6 RNA copies/mL and 1.7 × 10^6 RNA copies/mL (2×) and 9.9 × 10^5 RNA copies/mL and 2.7 × 10^5 RNA copies/mL and 1.3 × 10^4 RNA copies/mL and 8.8 × 10^4 RNA copies/mL and 3.5 × 10^5 RNA copies/mL and 4.6 × 10^4 RNA copies/mL and 2.9 × 10^6 RNA copies/mL and 1.4 × 10^5 RNA copies/mL and 1.2 × 10^5 RNA copies/mL.

Question: What about the “Peak viral load (no. of RNA copies/mL)” value ([3]; SIV/Statin Group 3 (treatment started 4 months following infection), individual animals) of the same molecule?
Answer: Its value is 2.4 × 10^7 RNA copies/mL and 1.6 × 10^7 RNA copies/mL and 1.2 × 10^7 RNA copies/mL and 4.7 × 10^7 RNA copies/mL and 4.3 × 10^7 RNA copies/mL and 2.2 × 10^7 RNA copies/mL and 1.0 × 10^6 RNA copies/mL and 8.4 × 10^5 RNA copies/mL and 8.3 × 10^6 RNA copies/mL and 7.3 × 10^6 RNA copies/mL and 9.6 × 10^6 RNA copies/mL and 8.8 × 10^6 RNA copies/mL and 2.9 × 10^7 RNA copies/mL and 5.8 × 10^6 RNA copies/mL.

Question: What about the “Viral set point (no. of RNA copies/mL)” value [3, 9] of the same molecule?
Answer: Its value is 1.4 × 10^5 RNA copies/mL and 4.1 × 10^3 RNA copies/mL and 1.1 × 10^6 RNA copies/mL and 7.8 × 10^2 RNA copies/mL and 1.4 × 10^6 RNA copies/mL and 1.2 × 10^7 RNA copies/mL and 1.5 × 10^4 RNA copies/mL and 3.0 × 10^2 RNA copies/mL and 1.1 × 10^5 RNA copies/mL and 1.8 × 10^6 RNA copies/mL and 4.4 × 10^5 RNA copies/mL and 2.8 × 10^3 RNA copies/mL and 4.0 × 10^5 RNA copies/mL and 9.0 × 10^3 RNA copies/mL.

Question: What about the “viral load compared to SIV/Untreated controls” value ([3]; both statin-treated cohorts, throughout SIV infection) of the same molecule?
Answer: The value was “did not significantly alter; also recorded: does not significantly affect”.

Question: And the “small pulmonary arteries collagen deposition” value ([4]; statin-treated cohorts compared to SIV-PAH+)?
Answer: The value was “significantly less collagen deposition”.

Question: What about the lung collagen deposition [4, 10] of the same molecule?
Answer: The lung collagen deposition was “considerably less collagen deposition”.

Question: What about the “right ventricle collagen deposition” value ([5]; both statin-treated cohorts compared to SIV-PAH+) of the same molecule?
Answer: The value was “significantly less collagen deposition”.

Question: What about the “right ventricle collagen deposition” value [5, 10] of the same molecule?
Answer: The value was “considerably less collagen deposition”.

Question: What about the “PAH Status” value [6, 8] of the same molecule?
Answer: The value was “PAH− (PAH is defined as mPAP≥25 mm Hg); also recorded: PAH+ (PAH is defined as mPAP≥25 mm Hg)”.

Question: And the “Peak mPAP (mm Hg)” value [6, 8]?
Answer: The value was 15.2 mm Hg and 46.3 mm Hg and 23.2 mm Hg (2×) and 25.7 mm Hg and 19.2 mm Hg and 17.6 mm Hg and 20.2 mm Hg and 17.4 mm Hg and 16.6 mm Hg and 17.1 mm Hg and 22.0 mm Hg and 20.6 mm Hg and 20.7 mm Hg.

Question: What about the “Incidence PAH ≥ 25 mm Hg 6-12 mpi” value ([6]; SIV/Statin Group 2: atorvastatin 10 mg/day orally from 1 week prior to SIV infection) of the same molecule?
Answer: The value was 2.

Question: What about the “Prevalence of PAH (% PAH+)” value ([6]; SIV/Statin Group 2: atorvastatin from 1 week prior to SIV infection) of the same molecule?
Answer: Its value is 14.3%.

Question: What about the “Prevalence of PAH (% PAH+)” value ([6]; SIV/Statin Group 2: atorvastatin from 1 week prior to SIV infection, listed as Statin) of the same molecule?
Answer: Its value is 14.3%.

Question: And the “mPAP at 6 mpi of animals that developed elevated mPAP” value ([6]; SIV/Statin Group 2, monkey 3316 and monkey 2416)?
Answer: The value was 25.4 mm Hg and 46.3 mm Hg.

Question: And the “terminal mPAP of animals that developed elevated mPAP” value ([6]; SIV/Statin Group 2, monkey 3316 and monkey 2416, study termination)?
Answer: The value was 25.7 mm Hg and 21.2 mm Hg.

Question: And the “PAH Status” value [6, 9]?
Answer: The value was “PAH− (PAH is defined as mPAP≥25 mm Hg); also recorded: PAH+ (PAH is defined as mPAP≥25 mm Hg)”.

Question: And the “Peak mPAP (mm Hg)” value [6, 9]?
Answer: The value was 21.4 mm Hg and 16.8 mm Hg and 13.2 mm Hg and 23.6 mm Hg and 45.5 mm Hg and 22.9 mm Hg and 24.1 mm Hg and 18.9 mm Hg and 20.2 mm Hg and 19.8 mm Hg and 24.4 mm Hg and 19.9 mm Hg.

Question: And the “Incidence PAH ≥ 25 mm Hg 6-12 mpi” value ([6]; SIV/Statin Group 3: atorvastatin 10 mg/day orally from 4 months following SIV infection)?
Answer: The value was 1.

Question: What about the “Prevalence of PAH (% PAH+)” value ([6]; SIV/Statin Group 3: atorvastatin from 4 months following SIV infection) of the same molecule?
Answer: The value was 7.1%.

Question: And the “Prevalence of PAH (% PAH+)” value ([6]; SIV/Statin Group 3: atorvastatin from 4 months following SIV infection, listed as Statin)?
Answer: The value was 7.1%.

Question: What about the “6 mpi mPAP of the animal that developed PAH” value ([6]; SIV/Statin Group 3, animal 2916) of the same molecule?
Answer: Its value is 45.5.

Question: And the “incidence of PAH” value ([6]; treatment initiated during the early chronic disease stage)?
Answer: Its value is “reduced incidence of PAH compared to untreated animals”.

Question: And the “development of SIV-associated PAH” value ([6]; treatment of healthy macaques prior to and throughout SIV infection)?
Answer: The value was “prevented the development of SIV-associated PAH”.

Question: And the “number of CD14dimCD16+ non-classical monocytes” value [7]?
Answer: The value was “significantly lower”.
